± gives the standard deviation of the averaged measurements.
Experiments:
Test in all cases: level (log10 ratio to DMSO vehicle control); higher = higher biomarker level / cell amount than vehicle control
Conditions in all cases: in DMSO
[1] = compound: O=S(=O)(O)C(F)(F)C(F)(F)C(F)(F)C(F)(F)C(F)(F)C(F)(F)F [Perfluorohexanesulfonic acid]
Procedure: (§1)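 BioMAP Diversity Plus panel of 12 human primary cell co-culture systems (3C, 4H, LPS, SAg, BT, BF4T, BE3C, CASM3C, HDF3CGF, KF3CT, MyoF, Mphg). Compounds were added 1 h before stimulation and left for 24 h (MyoF 48 h; BT 72 h for soluble read-outs or 6 d for IgG). Biomarkers were read by ELISA, cytotoxicity by SRB, PBMC viability and proliferation by Alamar Blue. Each well value was divided by the mean of 8 DMSO control wells on the same plate and log10 transformed; duplicate blinded samples were tested at 4 concentrations.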

Perfluoropentanoic acid = compound: O=C(O)C(F)(F)C(F)(F)C(F)(F)C(F)(F)F [Perfluoropentanoic acid]
Procedure: as §1

[2] = compound: C=CC(F)(F)C(F)(F)C(F)(F)C(F)(F)C(F)(F)C(F)(F)C(F)(F)C(F)(F)C=C [1,8-Divinylperfluorooctane]
Procedure: as §1

Perfluorodecanoic acid = compound: O=C(O)C(F)(F)C(F)(F)C(F)(F)C(F)(F)C(F)(F)C(F)(F)C(F)(F)C(F)(F)C(F)(F)F [Perfluorodecanoic acid]
Procedure: as §1

[3] = compound: OCC(F)(F)OC(F)(F)C(F)(F)OC(F)(F)CO [1H,1H,8H,8H-Perfluoro-3,6-dioxaoctane-1,8-diol]
Procedure: as §1

[4] = compound: OCCC(F)(F)C(F)(F)C(F)(F)C(F)(F)C(F)(F)C(F)(F)F [6:2 Fluorotelomer alcohol]
Procedure: as §1

[5] = compound: O=C(O)C(F)(F)C(F)(F)OC(F)(F)F [Perfluoro-3-methoxypropanoic acid]
Procedure: as §1

Test System | level (log10) ([1]; 6700 nM) | level (log10) ([1]; 20000 nM) | level (log10) ([1]; 60000 nM) | level (log10) (Perfluoropentanoic acid; 6700 nM) | level (log10) (Perfluoropentanoic acid; 20000 nM) | level (log10) (Perfluoropentanoic acid; 60000 nM) | level (log10) ([2]; 6700 nM) | level (log10) ([2]; 20000 nM) | level (log10) (Perfluorodecanoic acid; 6700 nM) | level (log10) (Perfluorodecanoic acid; 20000 nM) | level (log10) ([3]; 6700 nM) | level (log10) ([3]; 20000 nM) | level (log10) ([3]; 60000 nM) | level (log10) ([4]; 6700 nM) | level (log10) ([4]; 20000 nM) | level (log10) ([5]; 6700 nM) | level (log10) ([5]; 20000 nM) | level (log10) ([5]; 60000 nM)
BE3C:CXCL9/MIG | 0.0035 ± 0.0092 | -0.001 ± 0.0028 | -0.007 ± 0.0028 | -0.0035 ± 0.0092 | -0.012 ± 0.013 | 0.007 ± 0.018 | -0.001 ± 0.0014 | -0.005 ± 0.0028 | -0.003 ± 0.0042 | -0.715 ± 0.9 | 0.0015 ± 0.0064 | -0.0025 ± 0.0035 | 0.0035 ± 0.005 | 0.01 ± 0.0057 | 0.001 ± 0.0057 | 0.005 ± 0.0014 | 0.0095 ± 0.018 | 0.0105 ± 0.0021
BE3C:CXCL10/IP-10 | -0.0035 ± 0.00071 | -0.01 ± 0.0071 | -0.0405 ± 0.016 | -0.0085 ± 0.016 | -0.013 ± 0.021 | 0.0005 ± 0.005 | 0.0075 ± 0.0021 | 0 ± 0.017 | -0.188 ± 0.088 | -1.16 | 0.004 ± 0.02 | 0.01 ± 0.0071 | 0.0105 ± 0.016 | -0.0035 ± 0.005 | 0.006 ± 0.0028 | 0.0025 ± 0.005 | -0.0095 ± 0.0035 | 0.0025 ± 0.011
BE3C:CXCL11/I-TAC | -0.004 ± 0.016 | 0.004 ± 0.011 | 0.0035 ± 0.016 | -0.0175 ± 0.012 | -0.015 ± 0.0028 | -0.005 ± 0.014 | 0.011 ± 0.02 | -0.002 ± 0.0014 | -0.0405 ± 0.021 | -0.849 ± 0.028 | 0.007 ± 0.0014 | 0.0185 ± 0.0021 | 0.009 ± 0.014 | -0.017 ± 0.0028 | -0.022 ± 0.0057 | -0.0125 ± 0.0035 | -0.0115 ± 0.0092 | 0.0045 ± 0.00071
BE3C:EGFR | -0.005 | -0.0085 ± 0.0078 | 0.001 ± 0.0028 | -0.0025 ± 0.021 | -0.011 ± 0.0057 | 0.004 ± 0.018 | -0.0015 ± 0.022 | -0.006 | -0.0135 ± 0.05 | -0.149 ± 0.073 | 0.0085 ± 0.012 | -0.0025 ± 0.021 | -0.0095 ± 0.0064 | 0.004 ± 0.051 | -0.0025 ± 0.049 | -0.0075 ± 0.05 | 0.0065 ± 0.018 | 0.0335 ± 0.04
BE3C:HLA-DR | -0.014 ± 0.031 | -0.0285 ± 0.013 | -0.0585 ± 0.028 | -0.0095 ± 0.018 | 0 ± 0.011 | 0.016 ± 0.033 | 0.021 ± 0.016 | 0.014 | -0.0525 ± 0.022 | -0.842 ± 0.04 | -0.0065 ± 0.025 | -0.009 ± 0.021 | -0.008 ± 0.0042 | 0.003 | 0.005 ± 0.02 | -0.014 ± 0.0014 | 0.003 ± 0.023 | -0.0035 ± 0.033
BE3C:IL-1alpha | 0.0145 ± 0.042 | 0.02 ± 0.018 | 0.0545 ± 0.0021 | 0.005 ± 0.02 | 0 ± 0.0028 | 0.0155 ± 0.029 | 0.001 ± 0.02 | 0.026 ± 0.0057 | -0.0245 ± 0.00071 | -0.811 ± 0.055 | 0.0105 ± 0.032 | 0.0055 ± 0.016 | 0.003 ± 0.0014 | 0.019 ± 0.016 | 0.008 ± 0.0057 | 0.0105 ± 0.015 | 0.0235 ± 0.005 | 0.0355 ± 0.026
BF4T:CCL2/MCP-1 | 0.028 ± 0.045 | -0.0075 ± 0.013 | -0.042 ± 0.037 | 0.004 ± 0.047 | -0.0035 ± 0.052 | -0.0275 ± 0.025 | -0.007 ± 0.0028 | 0.014 ± 0.047 | -0.043 ± 0.03 | -0.484 ± 0.11 | 0.015 ± 0.028 | 0.012 ± 0.027 | 0.0085 ± 0.00071 | 0.024 ± 0.033 | 0.02 ± 0.014 | 0.0075 ± 0.026 | 0.0115 ± 0.043 | 0.0535 ± 0.054
BF4T:CCL26/Eotaxin-3 | 0.003 ± 0.0099 | -0.001 ± 0.02 | -0.0165 ± 0.037 | -0.0155 ± 0.029 | -0.0165 ± 0.0092 | 0.018 ± 0.05 | -0.0405 ± 0.019 | -0.0355 ± 0.013 | -0.083 ± 0.038 | -0.509 ± 0.029 | 0.0155 ± 0.0092 | 0.005 ± 0.035 | 0.024 ± 0.044 | -0.0055 ± 0.15 | -0.023 ± 0.081 | -0.033 ± 0.0085 | -0.031 ± 0.016 | 0.02 ± 0.057
BF4T:CD54/ICAM-1 | 0.0045 ± 0.00071 | -0.005 ± 0.011 | -0.022 ± 0.0099 | -0.0155 ± 0.0021 | -0.0135 ± 0.005 | 0.0015 ± 0.043 | -0.0115 ± 0.021 | -0.0095 ± 0.022 | -0.0305 ± 0.0064 | -0.181 ± 0.011 | -0.005 ± 0.0057 | 0.008 ± 0.0028 | -0.0005 ± 0.0035 | -0.004 ± 0.0014 | -0.0025 ± 0.011 | 0.0165 ± 0.0064 | -0.0085 ± 0.011 | -0.0015 ± 0.0035
BF4T:CD90 | -0.001 ± 0.014 | -0.0115 ± 0.0078 | -0.0305 ± 0.0064 | -0.02 ± 0.0085 | -0.0105 ± 0.005 | -0.0025 ± 0.025 | 0.0025 ± 0.0064 | -0.002 ± 0.0071 | 0.003 ± 0.0042 | -0.0955 ± 0.0064 | -0.008 ± 0.027 | -0.008 ± 0.011 | -0.0015 ± 0.011 | -0.0035 ± 0.0021 | -0.0165 ± 0.011 | -0.012 ± 0.021 | -0.0165 ± 0.013 | -0.0095 ± 0.0035
BF4T:CD106/VCAM-1 | -0.022 ± 0.024 | -0.019 ± 0.0014 | -0.0155 ± 0.033 | -0.0425 ± 0.036 | -0.046 ± 0.016 | 0.018 ± 0.04 | 0.0015 ± 0.016 | 0.0065 ± 0.018 | -0.026 ± 0.0085 | -0.311 ± 0.0042 | -0.0125 ± 0.015 | -0.006 ± 0.027 | 0.0245 ± 0.053 | -0.0195 ± 0.042 | -0.0525 ± 0.028 | -0.025 ± 0.031 | -0.029 ± 0.011 | 0.022 ± 0.014
BF4T:CXCL8/IL-8 | 0.002 ± 0.0085 | 0.0075 ± 0.0078 | 0.0255 ± 0.018 | -0.0345 ± 0.013 | -0.0295 ± 0.013 | -0.0105 ± 0.035 | 0.009 ± 0.03 | 0.0155 ± 0.013 | 0.0395 ± 0.012 | -0.293 ± 0.076 | 0.0225 ± 0.029 | -0.0005 ± 0.029 | 0 ± 0.023 | 0.0185 ± 0.015 | 0.0005 ± 0.005 | -0.004 ± 0.025 | -0.0225 ± 0.042 | 0.001 ± 0.068
BF4T:IL-1alpha | -0.0055 ± 0.005 | -0.025 ± 0.0042 | 0.0095 ± 0.00071 | -0.016 ± 0.0085 | -0.005 ± 0.0071 | 0.0155 ± 0.046 | -0.0175 ± 0.0021 | 0.01 ± 0.025 | -0.0335 ± 0.0035 | -0.247 ± 0.28 | -0.004 ± 0.0042 | -0.01 ± 0.0042 | 0.012 ± 0.0028 | -0.002 ± 0.0014 | -0.0125 ± 0.021 | -0.0055 ± 0.03 | -0.021 ± 0.0042 | 0.004 ± 0.045
BF4T:Keratin 8/18 | 0.007 ± 0.011 | 0.0075 ± 0.0064 | 0.026 ± 0.02 | 0.0055 ± 0.0064 | -0.002 ± 0.0085 | 0.0055 ± 0.03 | 0.023 ± 0.033 | -0.003 ± 0.033 | 0.011 ± 0.0028 | -0.335 ± 0.042 | 0.004 ± 0.0085 | -0.0075 ± 0.018 | 0.0205 ± 0.00071 | 0.0035 ± 0.0035 | 0.005 ± 0.0042 | -0.002 ± 0.031 | -0.003 ± 0.0085 | 0.016 ± 0.011
BF4T:MMP-1 | 0.0035 ± 0.0021 | -0.0025 ± 0.023 | 0.0255 ± 0.0035 | 0 ± 0.014 | -0.005 ± 0.0057 | 0.0085 ± 0.0092 | -0.0045 ± 0.005 | 0.0135 ± 0.035 | -0.0015 ± 0.0035 | -0.201 ± 0.011 | 0.0115 ± 0.022 | 0.013 ± 0.028 | 0.0135 ± 0.026 | 0.0065 ± 0.005 | 0.014 ± 0.021 | 0.0025 ± 0.0021 | 0.008 ± 0.0042 | 0.0205 ± 0.023
BF4T:MMP-3 | 0.021 ± 0.042 | 0.0195 ± 0.035 | 0.0605 ± 0.053 | -0.015 ± 0.011 | -0.0145 ± 0.0092 | -0.0045 ± 0.04 | 0.021 ± 0.016 | 0.0005 ± 0.005 | 0.0215 ± 0.023 | -0.14 ± 0.075 | -0.01 ± 0.045 | -0.0285 ± 0.057 | -0.0095 ± 0.037 | -0.004 ± 0.0042 | -0.0055 ± 0.0035 | -0.001 ± 0.024 | 0.0105 ± 0.0035 | 0.043 ± 0.016
